The results in this text go back to patent US12258338B2, “Modulators of the integrated stress response pathway” (EVOTEC INTERNATIONAL GMBH, priority 2019, dated 2025).

Structures are written as SMILES. In brackets after ≈: the same amount, converted by molar mass. Like-named read-outs stand apart in the source and are kept apart here.

The test system of one data set is ATF4. Nature of the data set: HEK-ATF4 High Content Imaging assay (prevention of Tunicamycin induced ISR; ATF4 signal ratio between nucleus and cytoplasm). The conditions noted are these: Homo sapiens; Wild-type HEK293 cells, Tunicamycin induced ISR, 6 h; read-out: IIEK-ATF4 Activity. It is filed as cell-based. In short, it runs like this:
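Wild-type HEK293 cells in 0.3% FBS medium were co-treated with compounds and Tunicamycin (3.3 μM in prediluted medium, 11-fold over final) for 6 h at 37 °C. Fixed cells were immunostained for ATF4 with Hoechst nuclei; imaging gave nuclear/cytoplasmic ATF4 ratio, with nuclei counts as toxicity control.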

Data set [1] is described as follows: Thermodynamic (Equilibrium) solubility in selected buffer. It is filed as physicochemical. The conditions noted are these: Table 25; for solubility: aqueous buffer, thermodynamic from solid. How it is done: Protocol—Thermodynamic (Equilibrium) Solubility in Selected Buffer
Example compounds were tested in the Thermodynamic (Equilibrium) solubility in selected buffer assay. The test compound, in powder form, was weighted into a 4 mL glass vial and a calculated volume of selected medium was added to reach the target concentration of the solubility test (1 mg/mL). The solution was then stirred overnight at r.t. protected from the light. The solution was filtered through a 0.45 μm PTFE membrane at ambient temperature. An aliquot of the resulting filtrate was quantified using UPLC-UV method described below against a reference solution of the test compound, 0.8 mg/mL in DMSO. Media compositions: Phosphate buffer 50 mM (pH=2.0) […] of NaH2PO4, H2O in 200 mL of ultrapurified water adjusted at pH 2 with phosphoric acid 85%; Acetate buffer 50 mM (pH=5.5) 820 mg of anhydrous sodium acetate in 200 mL of ultrapurified water adjusted at pH 5.5 with acetic acid 99.8%; Phosphate buffer 50 mM (pH=7.4) 40.5 mL of Na2HPO4 0.1 M solution+9.5 mL of NaH2PO4 0.1 M solution. Analytical conditions: UPLC-UV-MS analyses were performed with a Waters Acquity UPLC HClass-PDA-QDa system using a reverse phase Acquity BEH C18 column (2.1 mm×50 mm, 1.7 μm; temperature: 40° C.) and a gradient of 10-95% B (A=0.1% formic acid in H2O; B=0.05% formic acid in ACN) over 1.8 min then 100% B for 0.8 min, with an injection volume of 0.4 μL at flow rate of 0.65 mL/min. UV chromatograms were recorded at 220 nm, 254 nm and 290 nm using a photo diode array detector. Mass spectra were recorded in the 150 to 900 M/Z range at a sampling rate of 10 scans per sec using a QDa detector. Data were integrated using Empower®3 software. Data Analysis: Equilibrium solubility of the test compound in the selected medium was calculated through the ratio of the surface area of the UV chromatographic peak of the compound in the filtrate to the surface of the UV chromatographic peak of the compound in the reference solution.

Data set [2] deals with T1, human ERG potassium channel (hERG) (Homo sapiens, UniProt Q12809).
T1 construct: expressed in transfected cells; host or cells: HEK293, stably transfected, tetracycline-inducible promoter
Nature of the data set: hERG channel tail current recording using in vitro Rapid ICE (automated patch-clamp, QPatch HTX). The format is cell-based. The conditions noted are these: Table 26. In short, it runs like this:
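Automated patch clamp on tetracycline-induced HEK293 hERG cells; pulse −80 to −50 mV 200 ms, +20 mV 4.8 s, −50 mV 5 s tail, extracellular pH 7.4. Compound at 0.3, 3, 30 μM (0.3% DMSO), 5 min exposure; tail current versus vehicle gives % inhibition and estimated IC50.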

The mark [3] stands for this setting: acetate buffer 50 mM, pH 5.5, read-out: Solubility (μg/mL) pH 5.5.
The mark [4] stands for this setting: phosphate buffer 50 mM, pH 2.0, read-out: Solubility (μg/mL) pH 2.0.
[5] abbreviates: phosphate buffer 50 mM, pH 7.4, read-out: Solubility (μg/mL) pH 7.4.

T1 sequence (Q12809 whole entry): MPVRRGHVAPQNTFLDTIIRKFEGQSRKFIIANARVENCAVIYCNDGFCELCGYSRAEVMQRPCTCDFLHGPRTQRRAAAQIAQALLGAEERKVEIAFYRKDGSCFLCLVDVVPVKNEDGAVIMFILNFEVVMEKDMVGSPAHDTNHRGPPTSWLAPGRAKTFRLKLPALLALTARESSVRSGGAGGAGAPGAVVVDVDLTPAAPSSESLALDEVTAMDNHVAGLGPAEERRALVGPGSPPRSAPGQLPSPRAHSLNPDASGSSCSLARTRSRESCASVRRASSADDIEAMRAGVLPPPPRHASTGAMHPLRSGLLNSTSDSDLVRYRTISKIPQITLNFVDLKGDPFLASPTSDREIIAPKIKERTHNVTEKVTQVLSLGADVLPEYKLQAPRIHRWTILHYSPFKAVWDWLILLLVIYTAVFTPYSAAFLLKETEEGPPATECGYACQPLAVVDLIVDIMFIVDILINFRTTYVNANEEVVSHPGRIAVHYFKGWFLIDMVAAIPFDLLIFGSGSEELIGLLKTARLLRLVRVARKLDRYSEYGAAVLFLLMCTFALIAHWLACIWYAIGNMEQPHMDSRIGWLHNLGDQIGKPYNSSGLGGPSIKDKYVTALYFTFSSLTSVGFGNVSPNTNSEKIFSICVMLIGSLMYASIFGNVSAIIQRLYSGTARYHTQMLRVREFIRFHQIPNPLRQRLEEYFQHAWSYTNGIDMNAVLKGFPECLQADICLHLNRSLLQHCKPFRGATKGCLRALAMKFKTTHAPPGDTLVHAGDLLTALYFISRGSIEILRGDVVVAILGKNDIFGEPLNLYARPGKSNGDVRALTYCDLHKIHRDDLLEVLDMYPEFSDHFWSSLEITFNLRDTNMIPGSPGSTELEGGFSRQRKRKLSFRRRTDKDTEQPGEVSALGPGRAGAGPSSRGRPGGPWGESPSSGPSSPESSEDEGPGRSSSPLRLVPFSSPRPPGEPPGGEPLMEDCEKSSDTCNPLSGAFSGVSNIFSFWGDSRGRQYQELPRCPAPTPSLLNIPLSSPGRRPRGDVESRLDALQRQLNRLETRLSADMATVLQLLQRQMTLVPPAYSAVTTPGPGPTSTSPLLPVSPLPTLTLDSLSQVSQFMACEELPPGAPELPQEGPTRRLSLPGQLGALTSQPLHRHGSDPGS

Take `O=C(COc1ccc(Cl)c(F)c1)N[C@H]1CC[C@H](c2nnc(N3CC[C@H](OC(F)(F)F)C3)o2)NC1` (single isomer, unassigned) [Example 110]: the IC50 is 0.001 to 0.5 µM with ATF4 and over 5 µM in data set [2]. In addition, the solubility is 256 µg/mL (≈ 504 µM) in data set [1] (setting [3]), 982 µg/mL (≈ 1930 µM) in data set [1] (setting [4]) and 132 µg/mL (≈ 260 µM) in data set [1] (setting [5]).

For the compound `O=C(COc1ccc(Cl)c(F)c1)N[C@H]1CC[C@H](c2nnc(N3CC[C@@H](OC(F)(F)F)C3)o2)NC1` (single isomer, unassigned) [Example 111], the IC50 lay in the range of 0.001 to 0.5 µM in the data set on ATF4 and 1 to 5 µM in data set [2]. In addition, the figures for the solubility in data set [1] (setting [3]), in data set [1] (setting [4]) and in data set [1] (setting [5]) were 9 µg/mL (≈ 17.7 µM), 911 µg/mL (≈ 1790 µM) and 6 µg/mL (≈ 11.8 µM), respectively.

As to `O=C(COc1ccc(Cl)c(C(F)F)c1)N[C@H]1CC[C@H](c2nnc(OCCOC(F)(F)F)o2)NC1` [Example 11, 2-[4-chloro-3-(difluoromethyl)phenoxy]-N-[(3S,6R)-6-{5-[2-(trifluoromethoxy)ethoxy]-1,3,4-oxadiazol-2-yl}piperidin-3-yl]acetamide], the IC50 was 0.001 to 0.5 µM in the data set with ATF4 and over 5 µM in data set [2]. For the same compound, the figures for the solubility in data set [1] (setting [3]), in data set [1] (setting [4]) and in data set [1] (setting [5]) were 60 µg/mL (≈ 117 µM), 617 µg/mL (≈ 1200 µM) and 42 µg/mL (≈ 81.6 µM), respectively.

Take `Cc1cc(OCC(=O)N[C@H]2CC[C@H](c3nnc(OCCOC(F)(F)F)o3)NC2)ccc1Cl` [Example 12, 2-(4-chloro-3-methylphenoxy)-N-[(3S,6R)-6-{5-[2-(trifluoromethoxy)ethoxy]-1,3,4-oxadiazol-2-yl}piperidin-3-yl]acetamide]: the IC50 was 0.001 to 0.5 µM in the data set with ATF4 and over 5 µM in data set [2]. The figures for the solubility in data set [1] (setting [3]), in data set [1] (setting [4]) and in data set [1] (setting [5]) were 113 µg/mL (≈ 236 µM), 651 µg/mL (≈ 1360 µM) and 105 µg/mL (≈ 219 µM), respectively.

As for `Cc1ccc(OCC(=O)N[C@H]2CC[C@H](c3nnc(OCCOC(F)(F)F)o3)NC2)cc1C` [Example 13, 2-(3,4-dimethylphenoxy)-N-[(3S,6R)-6-{5-[2-(trifluoromethoxy)ethoxy]-1,3,4-oxadiazol-2-yl}piperidin-3-yl]acetamide], the IC50 with ATF4 was 0.001 to 0.5 µM; in data set [2], over 5 µM. The figures for the solubility in data set [1] (setting [3]), in data set [1] (setting [4]) and in data set [1] (setting [5]) were 318 µg/mL (≈ 694 µM), 661 µg/mL (≈ 1440 µM) and 240 µg/mL (≈ 524 µM), respectively.

Regarding `O=C(COc1ccc(C(F)(F)F)nc1)N[C@H]1CC[C@H](c2nnc(OCCOC(F)(F)F)o2)NC1` [Example 14, N-[(3S,6R)-6-{5-[2-(trifluoromethoxy)ethoxy]-1,3,4-oxadiazol-2-yl}piperidin-3-yl]-2-{[6-(trifluoromethyl)pyridin-3-yl]oxy}acetamide], the IC50 was 0.5 to 2 µM in the data set on ATF4 and over 5 µM in data set [2]. Also, the solubility was 814 µg/mL (≈ 1630 µM) in data set [1] (setting [3]), 616 µg/mL (≈ 1230 µM) in data set [1] (setting [4]) and 606 µg/mL (≈ 1210 µM) in data set [1] (setting [5]).

Regarding `O=C(COc1ccc(Cl)c(F)c1)N[C@H]1CC[C@H](c2nnc(-c3ccc(C(F)(F)F)nc3)o2)NC1` [Example 52, 2-(4-chloro-3-fluorophenoxy)-N-[(3S,6R)-6-{5-[6-(trifluoromethyl)pyridin-3-yl]-1,3,4-oxadiazol-2-yl}piperidin-3-yl]acetamide], the IC50 was in the range of 0.001 to 0.5 µM with ATF4 and 0.001 to 1 µM in data set [2]. In addition, the solubility in data set [1] (setting [3]) is 9 µg/mL (≈ 18 µM); in data set [1] (setting [4]), 839 µg/mL (≈ 1680 µM); in data set [1] (setting [5]) it was 7 µg/mL (≈ 14 µM).

Regarding `O=C(COc1ccc(Cl)c(F)c1)N[C@H]1CC[C@H](c2nnc(C3CN(CC(F)(F)F)C3)o2)NC1` [Example 57, 2-(4-chloro-3-fluorophenoxy)-N-[(3S,6R)-6-{5-[1-(2,2,2-trifluoroethyl)azetidin-3-yl]-1,3,4-oxadiazol-2-yl}piperidin-3-yl]acetamide], the IC50 with ATF4 was 0.5 to 2 µM; in data set [2], over 5 µM. In addition, the figures for the solubility in data set [1] (setting [3]) and in data set [1] (setting [5]) were 663 µg/mL (≈ 1350 µM) and 501 µg/mL (≈ 1020 µM), respectively. Further, the “Solubility (μg/mL) pH 2.0” value in data set [1] (pH 2.0) is “quant.^#”.
